Where “and” joins values, the source holds several entries; their conditions need not be identical. Equal values may be shown once. Where a name gives a salt, the structure may show the parent alone.
Key:
[1] = system: satellite cell expansion and muscle generation; conditions: in vitro and in mice, aging and dystrophic mouse models; cited from earlier work
[2] = system: ryr1b homozygous mutant zebrafish; assay: Secondary screen of individual chemicals in ryr1b zebrafish (vitality: survival and touch-evoked escape behavior); assay type: in vivo, zebrafish (Danio rerio); parameters: key: vitality score, theoretical range 0–60; DMSO controls expected ~50; conditions: 2.0 μg/mL from 1 dpf, scored at 5 dpf; average of two replicates of 20 larvae from heterozygous ryr1b matings; score=(#Dead*0)+(#ryr1b*1)+(#Moderate*2)+(#Wild-type*3), max 60, expected 50 in DMSO controls
Protocol: Each scored compound represents an average of two replicates, consisting of 20 larvae from heterozygous ryr1b matings (n=40). Larvae obtained from wild-type AB matings served as positive controls. […] Significance was determined by pairwise comparisons between control and experimental pools using a Student's t-test. Vitality score=(#Dead*0)+(#ryr1b*1)+(#Moderate*2)+(#Wild-type*3). Standard deviations shown for positive and negative controls were calculated based on results from 5 and 21 independent experiments, respectively.
Primary screen. For the primary screen, twenty embryos (1 dpf) resulting from a mating of heterozygous ryr1b zebrafish were manually sorted into 48-well plates containing 250 μL embryo 1×E3 medium (5.0 mM NaCl, 0.17 mM KCl, 0.33 mM CaCl2*2H2O, 0.33 mM MgSO4*7H2O) and four pooled chemicals from the Prestwick2 chemical library. Each chemical pool was assayed in duplicate using embryos from two independent clutches, for a total of 24 distinct pools tested per plate (FIG. 1). The chemicals were dissolved to a final concentration of 2.0 μg/mL and 0.4% DMSO, which is similar to concentrations other groups have used in zebrafish studies^37,38. As a negative control, twenty embryos from each clutch were cultured without chemicals in vehicle only (0.4% DMSO) (FIG. 1). Larvae obtained from wild-type (Oregon AB) matings served as positive controls in separate plates. All plates containing embryos were incubated at 28.5° C. and maintained as initially treated for 5 days. Dead embryos were removed from wells when observed during the first 4 days of the study. On day 5, dead or “motion-dead” larvae were scored alongside living larvae.
At 5 dpf, pools were scored for their ability to improve the survival and touch-evoked escape behaviors of ryr1b homozygous mutants using the following numeric scoring system: 3=4-6 cm, fast (wild-type); 2=2-4 cm (moderate); 1=<2 cm, slow (ryr1b); 0=no movement (dead) (FIG. 2A). Survival, swimming, and combined endpoints of the primary screen were then examined for their ability to distinguish positive from negative controls. […] Taking into account both experimental replicates (n=40), hit pools contained at least 37 alive larvae on day 5 (i.e., 70-100% of the larvae assumed to be ryr1b mutants survived the duration of the study), and were selected for analysis in a secondary screen.
In the secondary screen, hit pools were separated and tested as 68 individual chemicals. Screening was performed precisely as described for the primary screen with few modifications. Embryos were raised in wells containing 750 μL 1×E3 medium, as opposed to 250 μL, although the final concentration of each compound was maintained at 2.0 μg/mL. […] Vitality scores, weighting survival and swimming ratios appropriately, were calculated as (#Dead*0)+(#ryr1b*1)+(#Moderate*2)+(#Wild-type*3). Theoretical maximum and minimum scores were 60 and 0, respectively, with an expected score of 50 in DMSO-treated controls. Secondary screen hits (P<0.05), considered “candidate” compounds, are currently being examined in dose-response and long-term studies.
The second tier of the chemical screen was performed two years following the primary screen, with a fully established ryr1b^+/− line. Healthier clutches tended to result in better survival of homozygous ryr1b mutants. Median mutant life spans more accurately adhered to the 7-15 day estimate previously published^30. Therefore, in the secondary screen, hit chemical pools were separated into individual compounds and each of 68 total compounds was examined for its ability to positively influence both ryr1b survival and motor function (referred to in combination as “vitality”). […] These included two anti-inflammatory agents (sulfasalazine and ketoprofen), two monoamine oxidase inhibitors (pargyline hydrochloride and tranylcypromine hydrochloride), and two ion channel modulators (metolazone and nimodipine).

IL-6 [3] = conditions: in vitro; cited from earlier work
[4] = system: ryr1b homozygous mutant zebrafish; assay type: in vivo, zebrafish (Danio rerio); conditions: for touch-evoked escape behaviors / mobility of ryr1b mutants: treated from 1 dpf, scored and genotyped at 5 dpf
Protocol: In two independent experiments, two pools of 20 larvae from heterozygous ryr1b matings were treated with DMSO or with one of three different concentrations of NIF (1.0-100.0 μg/mL) at 1 dpf and evaluated in terms of touch-evoked escape behaviors at 5 dpf (n=40). Following phenotypic scoring, all living embryos were genotyped using three-primer genomic PCR. Swimming scores for larvae genotype-confirmed as ryr1b homozygous mutants are shown as a percentage of the total number of living larvae in each dose category: 1=poor swimming; 2 or 3=moderate or wild-type swimming. NIF improved mobility of ryr1b mutants at a dose of 10 μg/mL. […] Phospho-Stat3 band intensities were normalized to β-Actin control bands and quantified in Image J (NIH).
FIGS. 12A-12C show a ketoprofen dose-response and proposed mechanistic link. […] FIG. 12B is a dose-response graph for ketoprofen (KETO). Two pools of 20 larvae from heterozygous ryr1b matings were treated with DMSO or four different concentrations of KETO (1.0-100.0 μg/mL) at 1 dpf and evaluated in terms of touch-evoked escape behaviors at 5 dpf (n=40). Following phenotypic scoring, all living embryos were genotyped using three-primer genomic PCR. Swimming scores for larvae genotype-confirmed as ryr1b homozygous mutants are shown as a percentage of the total number of living larvae in each dose category: 1=poor swimming, 2 or 3=moderate or wild-type swimming. […] Phosphorylated STATs form dimers, translocate to nuclei, and from there are associated with various transcriptional activities. Dubowitz, V. and Sewry, C. (2006) Muscle Biopsy: A Practical Approach. Elsevier-Health Sciences Division.
The relatively relaxed zebrafish was initially identified due to a spontaneous autosomal recessive mutation within the ryr1b gene^30. Specifically, ryr1b mutants carry a 4046 base pair (bp) DNA insertion in the intron between exons 48 and 49 that includes an additional 32 bp sequence found in mutant cDNA (FIG. 3)^30. Genotypes of individual embryos were examined using three-primer genomic PCR, with an expected wild-type band of 1,668 bp and a mutant band of 653 bp. Primer sequences were as follows: ryr1b #1 (forward): 5′-[…]-3′ (SEQ ID NO: 4); ryr1b #2 (reverse): 5′-[…]-3′ (SEQ ID NO: 5); and ryr1b #3 (reverse): 5′-[…]-3′ (SEQ ID NO: 6).
The primary and secondary screens only tested chemical pools and individual compounds at a single concentration (2.0 μg/mL). Although beneficial in a high-throughput context, this approach can result in false positives and false negatives. […] For analysis, pools of 20 larvae obtained from heterozygous ryr1b matings were treated in duplicate with DMSO or with one of three different concentrations of NIF (1.0-100.0 μg/mL) at 1 dpf and scored for touch-evoked escape behaviors at 5 dpf. All scored larvae were then genotyped using three-primer genomic PCR. […] Next, hit expansion was used to verify JAK-STAT as a potential molecular pathway involved in ryr1b mutant pathology. […] A higher effective dose for 5,15-DPP was consistent with the IC50 measurements reported for each compound^40,41.

IL-6 [5] = conditions: skeletal muscle; cited from earlier work
ryr1b phenotype = conditions: zebrafish, in vivo; cited from earlier work
[6] = system: myofiber apoptosis and muscle strength; conditions: mouse, in vivo; cited from earlier work

Compound | Vitality Score [2] | further results
N#C/C(=C/c1ccc(O)c(O)c1)C(=O)NCc1ccccc1 [AG490] |  | satellite cell expansion and muscle generation [1]: promotes satellite cell expansion and rescues defects in muscle generation
COCCOC(=O)C1=C(C)NC(C)=C(C(=O)OC(C)C)C1c1cccc([N+](=O)[O-])c1 (stereo not drawn) [Nimodipine] | 52.0 | 
CC(C(=O)O)c1cccc(C(=O)c2ccccc2)c1 (stereo not drawn) [Ketoprofen] | 52.0 | production of IL-6 (IL-6 [3]): inhibits the production of IL-6 in vitro; touch-evoked escape behaviors / mobility of ryr1b mutants [4]: confirmed a relationship between ketoprofen and improvements in ryr1b mobility
Cc1ccccc1N1C(=O)c2cc(S(N)(=O)=O)c(Cl)cc2NC1C (stereo not drawn) [Metolazone] | 55.5 | 
O=C(O)c1cc(/N=N/c2ccc(S(=O)(=O)Nc3ccccn3)cc2)ccc1O [Sulfasalazine] | 57.0 | IL-6 release (IL-6 [5]): inhibit IL-6 release in skeletal muscle
CC(=O)N[C@@H](CS)C(=O)O [N-acetylcysteine] |  | effect on ryr1b phenotype (ryr1b phenotype): shown to ameliorate select aspects of the ryr1b phenotype
Clc1ccc(COC(Cn2ccnc2)c2ccc(Cl)cc2Cl)c(Cl)c1 (stereo not drawn) [Miconazole] | 54.0 | 
C#CCN(C)Cc1ccccc1 [Pargyline hydrochloride] | 58.0 | myofiber apoptosis and muscle strength [6]: significantly decreases myofiber apoptosis and increases muscle strength
CCCCOc1cc(C(=O)OCCN(CC)CC)ccc1N [Benoxinate hydrochloride] | 52.5 | 
CN(C)C/C=C(/c1ccc(Br)cc1)c1cccnc1 [Zimelidine dihydrochloride monohydrate] | 55.0 | 
CC(=O)N(CC(O)CO)c1c(I)c(C(=O)NCC(O)CO)c(I)c(C(=O)NCC(O)CO)c1I (stereo not drawn) [Iohexol] | 53.5 | 
Clc1ccccc1CN1CCc2sccc2C1 [Ticlopidine hydrochloride] | 54.0 | 
N[C@@H]1C[C@H]1c1ccccc1 [Tranylcypromine hydrochloride] | 52.0 | 
C1=Cc2nc1cc1ccc([nH]1)c(-c1ccccc1)c1nc(cc3ccc([nH]3)c2-c2ccccc2)C=C1 [5,15-DPP, 5,15-diphenylporphyrin] |  | genotyped ryr1b larvae in treated pools (evidence of toxicity) ([4]; 5 dpf, 25% mutants expected): less than 25%; dose that improved mobility of ryr1b mutants / optimal activity ([4]; treated at 1 dpf, touch-evoked escape behaviors at 5 dpf, tested 1.0-100.0 μg/mL): 100.0 µg/mL and 100 µg/mL; touch-evoked escape behaviors / mobility of ryr1b mutants [4]: ryr1b mutants were among larvae that exhibited wild-type touch-evoked escape behaviors; satellite cell expansion and muscle generation [1]: promotes satellite cell expansion and rescues defects in muscle generation

Source: patent US10973912B2, “Treatment for myopathy” (Children's Medical Center Corporation, priority 2015, dated 2021)
